Results on 30 molecules are retold here after patent US20040224958A1, “Pyridopyrimidinone derivatives for treatment of neurodegenerative disease” (priority 2000, published 2004).

Where two headings read alike, the source gives them in different places.

In one data set the target is Cdk5/p25 (Homo sapiens, UniProt Q00535). In words: Cyclin-Dependent Kinase 5 (cdk5) Assay. The class given is biochemical. How it is done: Cyclin-Dependent Kinase 5 (cdk5) Assay
Enzyme assays for IC50 determinations and kinetic evaluation were performed in 96-well filter plates (Millipore MAPH NOB 10). […] All components except histone and ATP were added to wells, and the plate was placed on a shaker for 5 minutes. The reaction was started by adding histone and [^32P]ATP, and the plate was shaken at 30° C. for 45 minutes. The reaction was terminated by addition of 0.1 mL of 150 mM phosphoric acid. The plate was kept at 4° C. for 30 minutes to allow substrate to precipitate. The wells were then washed three times with 0.2 mL of 75 mM phosphoric acid and ^32P incorporation was determined with a beta plate counter (Wallac Inc, Gaithersburg, Md.).

The next data set has as its target cdk4/D (Homo sapiens, UniProt P11802). In words: Cyclin-Dependent Kinase 4 (cdk4) Assay. The class given is biochemical.
The target of a further data set is cdk2/cyclinA (Homo sapiens, UniProt P24941). In words: Cyclin-Dependent Kinase Assay cdk2/cyclinA.
In a further data set the target is cdk2/cyclinE (Homo sapiens, UniProt P24941). The data set is described as follows: Cyclin-Dependent Kinase Assay cdk2/cyclinE.
The target in a further data set is cdc2/cyclinB (Homo sapiens, UniProt P06493). The data set is described as follows: Cyclin-Dependent Kinase Assay cdc2/cyclinB.
Sequence of cdc2/cyclinB (P06493 whole entry): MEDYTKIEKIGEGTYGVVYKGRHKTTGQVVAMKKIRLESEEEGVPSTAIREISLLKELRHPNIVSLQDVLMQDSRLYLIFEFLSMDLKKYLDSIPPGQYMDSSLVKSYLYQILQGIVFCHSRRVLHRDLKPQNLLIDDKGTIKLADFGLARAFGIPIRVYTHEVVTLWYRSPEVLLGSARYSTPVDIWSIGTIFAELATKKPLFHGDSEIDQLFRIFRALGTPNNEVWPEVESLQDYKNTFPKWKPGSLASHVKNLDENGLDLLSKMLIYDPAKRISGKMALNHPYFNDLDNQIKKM
Sequence of cdc2/cyclinB (P14635 whole entry, further chain): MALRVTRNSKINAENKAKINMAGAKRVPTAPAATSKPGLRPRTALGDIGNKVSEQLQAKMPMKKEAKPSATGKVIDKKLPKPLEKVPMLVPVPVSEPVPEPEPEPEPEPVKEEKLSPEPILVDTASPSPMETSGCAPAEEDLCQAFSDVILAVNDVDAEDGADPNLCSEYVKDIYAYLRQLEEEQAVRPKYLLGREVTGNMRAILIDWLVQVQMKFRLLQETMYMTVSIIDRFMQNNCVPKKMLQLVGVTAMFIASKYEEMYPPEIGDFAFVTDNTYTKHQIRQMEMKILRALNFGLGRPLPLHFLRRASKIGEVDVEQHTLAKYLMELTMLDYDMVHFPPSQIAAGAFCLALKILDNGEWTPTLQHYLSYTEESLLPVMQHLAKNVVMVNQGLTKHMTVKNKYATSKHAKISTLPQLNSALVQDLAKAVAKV

Sequence of cdk4/D (P11802 whole entry): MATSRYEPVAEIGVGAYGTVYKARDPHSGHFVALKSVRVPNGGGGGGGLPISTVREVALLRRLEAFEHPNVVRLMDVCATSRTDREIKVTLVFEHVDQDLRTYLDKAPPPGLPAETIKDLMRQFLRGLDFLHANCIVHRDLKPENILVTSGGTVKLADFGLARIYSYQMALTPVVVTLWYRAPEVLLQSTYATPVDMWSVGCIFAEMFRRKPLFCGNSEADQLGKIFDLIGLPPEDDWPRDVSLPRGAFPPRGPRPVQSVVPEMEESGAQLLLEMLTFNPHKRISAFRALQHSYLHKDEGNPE
Sequence of cdk4/D (P24385 whole entry, further chain): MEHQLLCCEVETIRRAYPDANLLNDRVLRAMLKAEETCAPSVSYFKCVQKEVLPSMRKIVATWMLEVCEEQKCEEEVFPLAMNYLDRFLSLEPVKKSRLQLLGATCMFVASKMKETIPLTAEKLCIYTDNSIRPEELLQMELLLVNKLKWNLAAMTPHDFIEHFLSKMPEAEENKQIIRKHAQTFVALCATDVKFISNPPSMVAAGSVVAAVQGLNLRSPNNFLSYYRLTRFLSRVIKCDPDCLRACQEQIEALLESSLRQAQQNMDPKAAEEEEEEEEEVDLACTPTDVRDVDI
Protocol for cdc2/cyclinB: Cyclin-Dependent Kinase Assays (cdk2/cyclinE, cdk2/cyclinA, cdc2/cyclinB)
All components except the ATP were added to the wells, and the plate was placed on a plate mixer for 2 minutes. The reaction was begun by addition of [^32P]ATP, and the plate was incubated at 25° C. for 15 minutes. The reaction was terminated by addition of 0.1 mL of 20% TCA. The plate was kept at 4° C. for at least 1 hour to allow the substrate to precipitate. The wells were then washed five times with 0.2 mL of 10% TCA and ^32p incorporation determined with a beta plate counter (Wallac Inc., Gaithersburg, Md.).

On to “8-Ethyl-2-(pyrimidin-4-ylamino)-8H-pyrido[2,3-d]pyrimidin-7-one [Example 50]”, for which the IC50 at Cdk5/p25 (Table 1) was 27 nM; at cdk4/D (Table 1, read-out: cdk4/D IC50), 2000 nM.

In the case of “8-Isopropyl-2-(4-methoxy-phenylamino)-8H-pyrido[2,3-d]pyrimidin-7-one [Example 622]”, the IC50 on cdk2/cyclinA (read-out: Cdk2/A IC50, Table 3) was determined as 392 nM; against Cdk5/p25 (Table 3) it was 30 nM; on cdk2/cyclinE (read-out: Cdk2/E IC50, Table 3), 540 nM; at cdk4/D (Table 3, read-out: Cdk4 IC50), 4080 nM.

Take `O=c1ccc2cnc(Nc3ccc(N4CCCCC4)cc3)nc2n1C1CCOC1` (racemic) [Example 200, 2-(4-Piperidin-1-yl-phenylamino)-8-(tetrahydro-furan-3-yl)-8H-pyrido[2,3-d]pyrimidin-7-one]: the melting point (in general, the temperature of the solid-liquid transition) was 181 to 182 °C. The molecule also returned an IC50 on cdk2/cyclinA (cdk2/A IC50, Table 1) of 285 nM. On cdk2/cyclinE (cdk2/E IC50, Table 1), this molecule came in with an IC50 of 1900 nM. On cdc2/cyclinB, this molecule came in with an IC50 of 4340 nM. For the same molecule, the IC50 at cdk4/D (Table 1, read-out: cdk4/D IC50) was 219 nM.

For `O=c1ccc2cnc(Nc3ccc(N4CCCCC4)cc3)nc2n1[C@H]1C[C@H]2CC[C@@H]1C2` (relative stereo) [Example 229, 8-Dicyclo[2.2.1]hept-2-yl-2-(4-piperidin-1-yl-phenylamino)-8H-pyrido[2,3-d]pyrimidin-7-one], the IC50 at cdk2/cyclinA (cdk2/A IC50, Table 1) is 996 nM; against Cdk5/p25 (Table 1), 288 nM; against cdk2/cyclinE (cdk2/E IC50, Table 1) it was 3000 nM; against cdc2/cyclinB it was 440 nM; on cdk4/D (Table 1, read-out: cdk4/D IC50), 2800 nM.

`CCn1c(=O)ccc2cnc(Nc3ccccc3)nc21` [Example 18, 8-Ethyl-2-phenylamino-8H-pyrido[2,3-d]pyrimidin-7-one]: the melting point is 203 to 204 °C. At Cdk5/p25 (Table 1), this molecule came in with an IC50 of 65 nM.

In the case of `CCOC(=O)C=Cc1cnc(Nc2ccccc2)nc1N` [Example 28, Ethyl 3-(4-Amino-2-phenylamino-pyrimidin-5-yl)acrylate], the melting point lay within 190 to 192 °C. For the same molecule, the IC50 on cdk4/D (Table 2, Formula II compounds, read-out: cdk4 IC50) was 65000 nM.

On to `O=c1ccc2cnc(Nc3ccccc3)nc2[nH]1` [Example 32, 2-Phenylamino-8H-pyrido[2,3-d]pyrimidin-7-one], for which the IC50 at Cdk5/p25 (Table 1) was found to be 1430 nM.

Take `COC(=O)Cn1c(=O)ccc2cnc(Nc3ccccc3)nc21` [Example 36]: the melting point fell in the range of 232 to 233 °C. For the same molecule, the IC50 at cdk4/D (Table 1, read-out: cdk4/D IC50) was determined as 31000 nM.

`CC(C)Cn1c(=O)ccc2cnc(Nc3ccccc3)nc21` [Example 42, 8-Isobutyl-2-phenylamino-8H-pyrido[2,3-d]pyrimidin-7-one]: the melting point lay in the range of 170 to 171 °C. At Cdk5/p25 (Table 1), this molecule showed an IC50 of 15 nM.

Molecule `CCn1c(=O)ccc2cnc(Nc3ccc(OC)cc3)nc21` [Example 51, 8-Ethyl-2-(4-methoxyphenylamino)-8H-pyrido[2,3-d]pyrimidin-7-one] displayed a melting point of 196 to 197 °C. The molecule also yielded an IC50 at Cdk5/p25 (Table 1) of 49 nM.

As to `CCN(CC)CCOc1ccc(Nc2ncc3ccc(=O)n(CC)c3n2)cc1` [Example 52, 2-[4-(2-Diethylaminoethoxy)-phenylamino]-8-ethyl-8H-pyrido[2,3-d]-pyrimidin-7-one], the melting point was in the range of 128 to 129 °C. The IC50 on Cdk5/p25 (Table 1) was determined as 155 nM.

The molecule `CCn1c(=O)ccc2cnc(Nc3ccc(N4CCN(C)CC4)cc3)nc21` [Example 53, 8-Ethyl-2-[4-(4-methylpiperazin-1-yl)-phenylamino]-8H-pyrido[2,3-d]-pyrimidin-7-one] registered a melting point of 185 to 186 °C. The same molecule gave an IC50 at Cdk5/p25 (Table 1) of 239 nM.

As to `CCn1c(=O)ccc2cnc(Nc3cccc(OC(F)(F)C(F)F)c3)nc21` [Example 54, 8-Ethyl-2-[3-(1,1,2,2-tetrafluoroethoxy)-phenylamino]-8H-pyrido[2,3-d]-pyrimidin-7-one], the melting point is 175 to 176 °C. The molecule further came in with an IC50 at Cdk5/p25 (Table 1) of 568 nM.

`CCn1c(=O)ccc2cnc(Nc3ccc(OCCOC)cc3)nc21` [Example 57, 8-Ethyl-2-[4-(2-methoxyethoxy)phenylamino]-8H-pyrido[2,3-d]pyrimidin-7-one] came in with a melting point of 169 to 171 °C. In addition, on Cdk5/p25 (Table 1), the IC50 was determined as 218 nM.

Molecule `CC(C)n1c(=O)ccc2cnc(Nc3ccc(N4CCN(C)CC4)cc3)nc21` [Example 60, 8-Isopropyl-2-[4-(4-methylpiperazin-1-yl)-phenylamino]-8H-pyrido[2,3-d]-pyrimidin-7-one] registered an IC50 against Cdk5/p25 (Table 1) of 17 nM.

Consider `CCN1C(=O)CCc2cnc(Nc3ccccc3)nc21` [Example 69, 8-Ethyl-2-phenylamino-5,8-dihydro-6H-pyrido[2,3-d]pyrimidin-7-one], for which the melting point lay within 146 to 147 °C. Further, the IC50 against Cdk5/p25 (Table 1) is 65 nM.

On to `CCn1c(=O)ccc2cnc(Nc3ccc(N4CCOCC4)cc3)nc21` [Example 79, 8-Ethyl-2-(4-morpholin-4-yl-phenylamino)-8H-pyrido[2,3-d]pyrimidin-7-one], for which the melting point is 227 to 228 °C. The molecule also showed an IC50 at Cdk5/p25 (Table 1) of 107 nM.

As for `CCn1c(=O)c(C)cc2cnc(Nc3ccccc3)nc21` [Example 83, 8-Ethyl-6-methyl-2-phenylamino-8H-pyrido[2,3-d]pyrimidin-7-one], the melting point is 178 to 180 °C. The molecule also yielded an IC50 on Cdk5/p25 (Table 1) of 587 nM.

Turning to `O=c1ccc2cnc(Nc3ccccc3)nc2n1-c1ccccc1` [Example 101, 2-Phenylamino-8-phenyl-8H-pyrido[2,3-d]pyrimidin-7-one], the IC50 at Cdk5/p25 (Table 1) stood at 165 nM.

`CCN(CC)CCOc1ccc(Nc2ncc3ccc(=O)n(CCOCc4ccccc4)c3n2)cc1` [Example 139] returned a melting point of 95 to 97 °C. Moreover, on cdk2/cyclinE (cdk2/E IC50, Table 1), the IC50 amounted to 2630 nM. Besides, the IC50 on cdk4/D (Table 1, read-out: cdk4/D IC50) was found to be 2860 nM.

For the molecule `CN(C)CCCN1CCN(c2ccc(Nc3ncc4ccc(=O)n(C5CCCCC5)c4n3)cc2)CC1` [Example 144], the IC50 came out at 102 nM at cdk2/cyclinA (read-out: cdk2/A IC50, Table 1); 39.4 nM against Cdk5/p25 (Table 1); 43 nM on cdk2/cyclinE (read-out: cdk2/E IC50, Table 1); 344 nM at cdc2/cyclinB (read-out: cdk1/B IC50, Table 1); 16 nM on cdk4/D (Table 1, read-out: cdk4/D IC50).

`O=c1ccc2cnc(Nc3ccc(F)cc3)nc2n1C1CCCCC1` [Example 148, 8-Cyclohexyl-2-(4-fluoro-phenylamino)-8H-pyrido[2,3-d]pyrimidin-7-one] gave a melting point of 209 to 211 °C. This molecule displayed an IC50 on cdk2/cyclinA (cdk2/A IC50, Table 1) of 77.5 nM. The molecule further registered an IC50 on cdk2/cyclinE (cdk2/E IC50, Table 1) of 53.5 nM. This molecule yielded an IC50 against cdc2/cyclinB of 1820 nM. The IC50 on cdk4/D (Table 1, read-out: cdk4/D IC50) amounted to 197 nM.

In the case of `O=c1ccc2cnc(Nc3ccc(N4CCCCC4)cc3)nc2n1C1CCCCCC1` [Example 163, 8-Cycloheptyl-2-(4-piperidin-1-yl-phenylamino)-8H-pyrido[2,3-d]primidin-7-one], the IC50 at cdk2/cyclinA (read-out: cdk2/A IC50, Table 1) was 66.8 nM; at Cdk5/p25 (Table 1), 150 nM; on cdk2/cyclinE (read-out: cdk2/E IC50, Table 1), 193 nM; on cdc2/cyclinB (read-out: cdk1/B IC50, Table 1) it was 642 nM; on cdk4/D (Table 1, read-out: cdk4/D IC50), 31.5 nM.

For `O=c1ccc2cnc(Nc3ccc(SC(F)(F)F)cc3)nc2n1C1CC2CCC1C2` (stereo not drawn) [Example 221, 8-Bicyclo[2.2.1]hept-2-yl-2-(4-trifluoromethylsuffanyl-phenylamino)-8H-pyrido[2,3-d]pyrimidin-7-one], the IC50 is 370 nM on cdk2/cyclinA (read-out: cdk2/A IC50, Table 1); 349 nM against Cdk5/p25 (Table 1); 511 nM on cdk2/cyclinE (read-out: cdk2/E IC50, Table 1); 1120 nM on cdc2/cyclinB (read-out: cdk1/B IC50, Table 1); 320 nM on cdk4/D (Table 1, read-out: cdk4/D IC50).

For the molecule `O=c1ccc2cnc(Nc3ccc(N4CCCC(O)C4)cc3)nc2n1C1CC2CCC1C2` (stereo not drawn) [Example 254], the IC50 was found to be 28 nM against cdk2/cyclinA (cdk2/A IC50, Table 1); 44.9 nM on Cdk5/p25 (Table 1); 64 nM at cdk2/cyclinE (cdk2/E IC50, Table 1); 175 nM against cdc2/cyclinB; 3.5 nM on cdk4/D (Table 1, read-out: cdk4/D IC50).

In the case of `CC1CN(c2ccc(Nc3ncc4ccc(=O)n(C5CC6CCC5C6)c4n3)cc2)CC(C)N1` (stereo not drawn) [Example 255], the IC50 on cdk2/cyclinA (read-out: cdk2/A IC50, Table 1) was found to be 67.5 nM; on Cdk5/p25 (Table 1), 32.1 nM; at cdk2/cyclinE (read-out: cdk2/E IC50, Table 1), 124 nM; on cdc2/cyclinB (read-out: cdk1/B IC50, Table 1) it was 335 nM; on cdk4/D (Table 1, read-out: cdk4/D IC50), 3 nM.

With `O=c1ccc2cnc(Nc3ccc(N4CCC(CCN5CCOCC5)CC4)cc3)nc2n1C1CCCCC1` [Example 258], the melting point was in the range of 245 to 246 °C. On cdk2/cyclinA (cdk2/A IC50, Table 1), this molecule gave an IC50 of 73.3 nM. In addition, the IC50 against cdk2/cyclinE (cdk2/E IC50, Table 1) was found to be 200 nM. This molecule also came in with an IC50 at cdc2/cyclinB of 599 nM. In addition, the IC50 at cdk4/D (Table 1, read-out: cdk4/D IC50) worked out at 7.5 nM.

Take `O=c1ccc2cnc(Nc3ccc(N4CCCC(CCCN5CCOCC5)C4)cc3)nc2n1C1CC2CCC1C2` (stereo not drawn) [Example 262, 8-Bicyclo[2.2.1]hept-2-yl-2-{4-[3-(3-morpholin-4-yl-propyl)-piperidin-1-yl]-phenylamino}-8H-pyrido[2,3-d]pyrimidin-7-one]: the melting point is 156 to 157 °C.

For `O=c1ccc2cnc(Nc3ccc(N4CCCC(CN5CCOCC5)C4)cc3)nc2n1C1CC2CCC1C2` (stereo not drawn) [Example 263, 8-Bicyclo[2.2.1]hept-2-yl-2-[4-(3-morpholin-4-ylmethyl-piperidin-1-yl)-phenylamino]-8H-pyrido[2,3-d]pyrimidin-7-one], the melting point was in the range of 155 to 157 °C.

As for `CCC(CC)n1c(=O)ccc2cnc(Nc3ccccc3)nc21` [R′=H, R″=H, R2=1-ethylpropyl, 8-(1-Ethylpropyl)-2-phenylamino-8H-pyrido[2,3-d]pyrimidin-7-one], the IC50 came to 127 nM against cdk2/cyclinA (Cdk2/A IC50, Table 3); 8.7 nM against Cdk5/p25 (Table 3); 200 nM against cdk2/cyclinE (Cdk2/E IC50, Table 3); 159 nM at cdk4/D (Table 3, read-out: Cdk4 IC50).
